Laboratory results reported in ChEMBL document CHEMBL1255522, “Novel amides and esters prodrugs of olmesartan: Synthesis, bioconversion, and pharmacokinetic evaluation” (Bioorg Med Chem Lett, 2010).

Assay: Stability in Sprague-Dawley rat plasma assessed as compound remaining at 50 mg/ml after 30 mins
Type: ADME, cell-free
Details: read-out: Stability

Row | remaining at 0.5 h | Structure (SMILES)
1 | 98.9% | CCCc1nc(C(C)(C)O)c(C(=O)NCCNCCO)n1Cc1ccc(-c2ccccc2C2=NNNN2)cc1
2 | 96.3% | CCCc1nc(C(C)(C)O)c(C(=O)OCc2c[nH]c(=O)[nH]c2=O)n1Cc1ccc(-c2ccccc2C2=NNNN2)cc1
3 | 98.8% | CCCc1nc(C(C)(C)O)c(C(=O)OCCCCCCC(=O)O)n1Cc1ccc(-c2ccccc2C2=NNNN2)cc1
4 | 100% | CCCc1nc(C(C)(C)O)c(C(=O)OCCCCCC[N+](=O)[O-])n1Cc1ccc(-c2ccccc2C2=NNNN2)cc1
5 | 101% | CCCc1nc(C(C)(C)O)c(C(=O)NCCCCCC[N+](=O)[O-])n1Cc1ccc(-c2ccccc2C2=NNNN2)cc1
6 | 90.2% | CCCCCCCCOC(=O)c1c(C(C)(C)O)nc(CCC)n1Cc1ccc(-c2ccccc2C2=NNNN2)cc1
7 | 81.1% | CCCc1nc(C(C)(C)O)c(C(=O)OCCCCCCC(=O)OCC)n1Cc1ccc(-c2ccccc2C2=NNNN2)cc1
8 | 97.5% | CCCc1nc(C(C)(C)O)c(C(=O)NCCCCCCC(=O)O)n1Cc1ccc(-c2ccccc2C2=NNNN2)cc1
